Entries after “also recorded” stand apart in the source; their conditions may differ. Where two headings read alike, the source gives them in different places.
Columns and labels:
[1] = system: AML patients; parameters: method as in Cortes et al., 2013; conditions: monotherapy, Phase II trial; ref Cortes et al., 2013; cited from earlier work
[2] = system: KIT phosphorylation; parameters: method as in Griswold et al., 2004; conditions: ref Griswold et al., 2004; cited from earlier work
[3] = system: MV4;11 cells (FLT3-ITD homozygous); assay: Cell proliferation/viability assay, MV4;11; format: cell-based; conditions: Homo sapiens, 48 hr, ± SEM
Procedure: (§1) Exponentially growing cells (5 × 10^3 cells per well) were plated in each well of a 96-well plate with 0.1 ml of RPMI 1640 + 10% (vol/vol) FCS containing the appropriate concentration of drug in triplicate, and cell viability was assessed after 48 hr as previously described ([Smith et al., 2012]). […] Log10-scale transformation of ratios, followed by conditional formatting using xcel spreadsheet software yielded the colored diagrams shown.

[4] = system: HMC1.1 cells (KIT V560G); assay: Cell proliferation/viability assay, HMC1.1; format: cell-based, human; conditions: Homo sapiens; Kit V560 G, 48 hr, ± SEM
Procedure: as §1

[5] = system: HMC1.1 cells; assay: Caspase-3 activation (apoptosis), HMC1.1; format: cell-based, human; conditions: 48 hr, up to 2,500 nM
Procedure: Cells were fixed with 4% (vol/vol) paraformaldehyde (Electron Microscopy Sciences) and permeabilized with 100% (vol/vol) methanol (Electron Microscopy Sciences, Hatfield, PA) followed by staining with a FITC-conjugated antiactive caspase-3 antibody (BD Pharmingen, San Jose, CA). Cells were run on a BD LSRFortessa cell analyzer, and data were analyzed using FlowJo (Tree Star Inc., Ashland, OR). Percentage of live cells was determined by negative staining for activated caspase-3 (see Figure 2B,C).

[6] = biological target: T1, p-KIT in HMC1.1 cells (Homo sapiens, UniProt P10721, V560G); assay: Immunoblot of p-KIT in HMC1.1; format: cell-based; conditions: immunoblot, 90-min incubation
T1 construct: endogenous in cells; host or cells: HMC1.1
T1 sequence (P10721 26-976 V560G): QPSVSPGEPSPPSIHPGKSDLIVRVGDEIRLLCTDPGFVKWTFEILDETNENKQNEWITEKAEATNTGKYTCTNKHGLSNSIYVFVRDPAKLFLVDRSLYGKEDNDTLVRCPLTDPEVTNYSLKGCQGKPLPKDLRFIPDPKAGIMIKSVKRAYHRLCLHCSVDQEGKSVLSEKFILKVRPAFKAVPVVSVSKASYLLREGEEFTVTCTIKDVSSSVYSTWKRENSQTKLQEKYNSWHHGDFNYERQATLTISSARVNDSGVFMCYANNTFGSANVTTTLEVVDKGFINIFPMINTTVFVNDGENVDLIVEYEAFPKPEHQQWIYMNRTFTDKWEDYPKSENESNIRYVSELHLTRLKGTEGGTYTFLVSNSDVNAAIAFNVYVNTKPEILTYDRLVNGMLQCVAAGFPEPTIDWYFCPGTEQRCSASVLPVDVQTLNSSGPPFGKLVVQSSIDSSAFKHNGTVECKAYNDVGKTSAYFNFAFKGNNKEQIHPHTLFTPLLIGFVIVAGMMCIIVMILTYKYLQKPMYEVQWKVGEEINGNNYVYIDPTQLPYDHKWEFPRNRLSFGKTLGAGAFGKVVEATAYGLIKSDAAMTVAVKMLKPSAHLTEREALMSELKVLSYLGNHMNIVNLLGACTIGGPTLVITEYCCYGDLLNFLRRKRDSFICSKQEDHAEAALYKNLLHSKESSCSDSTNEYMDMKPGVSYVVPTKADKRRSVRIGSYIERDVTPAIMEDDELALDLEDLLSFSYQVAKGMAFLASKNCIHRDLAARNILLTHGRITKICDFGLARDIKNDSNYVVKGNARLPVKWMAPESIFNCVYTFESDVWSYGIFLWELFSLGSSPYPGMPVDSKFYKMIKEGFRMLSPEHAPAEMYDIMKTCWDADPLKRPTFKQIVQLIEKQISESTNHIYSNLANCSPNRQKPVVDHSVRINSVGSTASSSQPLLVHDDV

[7] = system: primary patient FLT3-ITD+ AML circulating blasts; assay: Colony-forming assay, primary patient FLT3-ITD+ AML blasts; format: cell-based, human; conditions: at 1,000 nM; ca. 1,200 CFUs in DMSO plates
Description: (§2) Primary AML blood samples and/or marrow aspirates were obtained on an IRB-approved protocol at the University of California, San Francisco. Informed consent was obtained in accordance with the Declaration of Helsinki. Mononuclear cells were purified by density centrifugation (Ficoll–Paque Plus, GE Healthsciences) before cryopreservation in 10% (vol/vol) DMSO or FCS (primary ITD and D835-mutant assays, Figure 3A–C) or immediate use in assays (Normal BM and SPB, Figure 3D–F). Normal BM and stimulated peripheral blood (SPB) samples were collected from donors at the UCSF oncology/hematology division. Cells were then suspended in MethoCult methylcellulose (Stem Cell Technologies, product no. H4435 Enriched, Canada) in 15-ml Falcon tubes, vigorously vortexed, bubbles settled over 10 min. Triplicates then plated via blunt-nosed syringe (1.1 ml each) into 3-cm dishes, avoiding bubble generation, and each dish placed in a larger 10-cm dish with water trough in an incubator (37°C, 5% CO2) for 13–14 days. Colonies were counted individually using traditional microscopy. CFU and BFU types reported separately (CFU-GEMM colonies counted as one of each).

[8] = system: primary patient FLT3 D835 AML circulating blasts; assay: Colony-forming assay, primary patient FLT3-D835 AML blasts; format: cell-based, human; conditions: at 1,000 nM; ca. 120 for DMSO plates
Description: as §2

[9] = system: normal bone marrow (BM) and stimulated peripheral blood (SPB) hematopoietic progenitors; assay: Colony-forming assay, normal BM and stimulated peripheral blood; format: cell-based, human
Description: as §2, with “each). Results shown for FLT3 ITD primary blasts (Figure 3B) are a combination of leukemic blast colonies and BFU colonies.” for “each).”

[10] = system: zebrafish embryos; assay: Zebrafish embryonic development / WT morphology; format: in vivo, Danio rerio (zebrafish); conditions: 3 dpf, drug from 6 hpf
Procedure: (§3) Figure 4. […] (N–P) Three categories of mpo transcription (N, normal; O, intermediate; P, severe) were defined based on the WISH results (three experiments). […] Scale bar equals 500 μm. Blue arrows indicate the pericardial edema, green arrows indicate tail shortening and curving, and red arrows indicate the FLT3-ITD AML mpo+ myeloid cells expansion. […] For all experiments: Zebrafish embryos were collected and kept in standard E3 medium at 28°C. Different concentrations of either drug were added to the E3 medium from 6 hr post fertilization (hpf) to 3 days post fertilization (dpf). Embryos treated with DMSO or 10 μM drug from 6 to 30 hpf were collected for mpo whole mount in situ hybridization (WISH) analysis. […] plasmid DNA containing FLT3/ITD sequence was microinjected into one-cell stage embryos, and the uninjected embryos were used as control. FLT3/ITD-injected embryos were treated with DMSO or 10 μM drug from 6 to 30 hpf.
(§4) Wild-type (WT) zebrafish were maintained under standard conditions, and embryos were staged as described ([He et al., 2014]). The study was approved by the Committee of the Use of Live Animals for Teaching and Research in The University of Hong Kong.

[11] = system: mpo+ myeloid cells in zebrafish embryos; assay: Zebrafish normal myelopoiesis, mpo WISH in posterior blood island; format: in vivo, Danio rerio (zebrafish); conditions: 10 μM, 6 to 30 hpf, read at 30 hpf, vs DMSO
Procedure: as §3, §4

[12] = system: FLT3/ITD-injected zebrafish embryos; assay: Zebrafish FLT3/ITD-induced mpo+ myeloid cell expansion; format: in vivo, Danio rerio (zebrafish); conditions: 10 μM, 6 to 30 hpf, read at 30 hpf
Procedure: as §3, §4

[13] = system: Ba/F3 Parental + IL3; assay: Ba/F3 cell viability, Parental + IL3; format: cell-based; conditions: Mus musculus, BaF3; Ba/F3, 48 hr, ± SEM
Procedure: (§5) Stable Ba/F3 lines were generated by retroviral spinfection with the appropriate mutated plasmid as previously described ([Smith et al., 2012]).
as §1

[14] = system: Ba/F3 FLT3 ITD + D835F; assay: Ba/F3 cell viability, FLT3 ITD + D835F; format: cell-based; conditions: Mus musculus, Ba/F3, 48 hr, ± SEM
Procedure: as §5, §1
(§6) Mutations isolated in the screen were engineered into pMSCVpuroFLT3–ITD by QuikChange mutagenesis (Stratagene, La Jolla, CA) as previously described ([Smith et al., 2012]).

[15] = system: Ba/F3 FLT3 ITD + A848P; assay: Ba/F3 cell viability, FLT3 ITD + A848P; format: cell-based; conditions: Mus musculus, Ba/F3, 48 hr, ± SEM
Procedure: as §5, §1, §6

[16] = system: AML patients; parameters: method as in Strati et al., 2014; conditions: ref Strati et al., 2014, cited from earlier work
[17] = biological target: T2, purified FLT3 WT (Homo sapiens, UniProt P36888); assay: Radiolabeled purified kinase assay (Figure 1B)
T2 sequence (P36888 27-993): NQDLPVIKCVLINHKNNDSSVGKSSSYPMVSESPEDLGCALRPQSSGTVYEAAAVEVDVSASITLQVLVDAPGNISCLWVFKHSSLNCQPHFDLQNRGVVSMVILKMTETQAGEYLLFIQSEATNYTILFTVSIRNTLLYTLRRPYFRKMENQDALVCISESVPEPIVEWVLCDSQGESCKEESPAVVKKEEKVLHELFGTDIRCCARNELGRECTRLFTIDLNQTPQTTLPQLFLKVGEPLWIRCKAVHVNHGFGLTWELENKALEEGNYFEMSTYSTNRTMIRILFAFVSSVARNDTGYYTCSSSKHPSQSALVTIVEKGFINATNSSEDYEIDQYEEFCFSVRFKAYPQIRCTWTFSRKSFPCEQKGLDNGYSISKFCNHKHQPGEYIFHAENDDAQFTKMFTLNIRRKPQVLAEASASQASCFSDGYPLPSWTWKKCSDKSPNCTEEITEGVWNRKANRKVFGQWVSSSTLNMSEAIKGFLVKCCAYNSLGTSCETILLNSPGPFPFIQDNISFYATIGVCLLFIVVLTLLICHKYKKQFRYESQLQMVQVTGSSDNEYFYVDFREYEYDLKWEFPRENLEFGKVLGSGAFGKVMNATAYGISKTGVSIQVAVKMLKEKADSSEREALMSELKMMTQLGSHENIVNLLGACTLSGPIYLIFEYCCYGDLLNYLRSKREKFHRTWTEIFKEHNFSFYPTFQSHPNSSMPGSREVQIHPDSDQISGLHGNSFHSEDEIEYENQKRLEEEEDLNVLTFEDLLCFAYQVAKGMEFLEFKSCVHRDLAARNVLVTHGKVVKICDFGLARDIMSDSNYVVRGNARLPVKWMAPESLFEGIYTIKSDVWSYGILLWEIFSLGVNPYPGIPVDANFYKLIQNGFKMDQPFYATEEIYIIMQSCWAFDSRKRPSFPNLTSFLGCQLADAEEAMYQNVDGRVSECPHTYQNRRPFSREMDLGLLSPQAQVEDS

[18] = biological target: T3, FLT3 (Homo sapiens, UniProt P36888); parameters: purchased Reaction Biology Corporation (Malvern, PA); method as in Lopez et al., 2013; conditions: at 1 µM, panel of 319 kinases; ref Lopez et al., 2013; cited from earlier work
T3 sequence (P36888 27-993): T2 sequence (P36888 27-993)

[19] = biological target: KIT (Homo sapiens, UniProt P10721); parameters: purchased Reaction Biology Corporation (Malvern, PA); method as in Lopez et al., 2013; conditions: at 1 µM, panel of 319 kinases; ref Lopez et al., 2013; cited from earlier work
KIT, sequence (P10721 26-976): as the sequence (P10721 26-976 V560G) above, with G535V counted along it

[20] = biological target: CSF1R (Homo sapiens, UniProt P07333); parameters: purchased Reaction Biology Corporation (Malvern, PA); method as in Lopez et al., 2013; conditions: at 1 µM, panel of 319 kinases; ref Lopez et al., 2013; cited from earlier work
CSF1R, sequence (P07333 20-972): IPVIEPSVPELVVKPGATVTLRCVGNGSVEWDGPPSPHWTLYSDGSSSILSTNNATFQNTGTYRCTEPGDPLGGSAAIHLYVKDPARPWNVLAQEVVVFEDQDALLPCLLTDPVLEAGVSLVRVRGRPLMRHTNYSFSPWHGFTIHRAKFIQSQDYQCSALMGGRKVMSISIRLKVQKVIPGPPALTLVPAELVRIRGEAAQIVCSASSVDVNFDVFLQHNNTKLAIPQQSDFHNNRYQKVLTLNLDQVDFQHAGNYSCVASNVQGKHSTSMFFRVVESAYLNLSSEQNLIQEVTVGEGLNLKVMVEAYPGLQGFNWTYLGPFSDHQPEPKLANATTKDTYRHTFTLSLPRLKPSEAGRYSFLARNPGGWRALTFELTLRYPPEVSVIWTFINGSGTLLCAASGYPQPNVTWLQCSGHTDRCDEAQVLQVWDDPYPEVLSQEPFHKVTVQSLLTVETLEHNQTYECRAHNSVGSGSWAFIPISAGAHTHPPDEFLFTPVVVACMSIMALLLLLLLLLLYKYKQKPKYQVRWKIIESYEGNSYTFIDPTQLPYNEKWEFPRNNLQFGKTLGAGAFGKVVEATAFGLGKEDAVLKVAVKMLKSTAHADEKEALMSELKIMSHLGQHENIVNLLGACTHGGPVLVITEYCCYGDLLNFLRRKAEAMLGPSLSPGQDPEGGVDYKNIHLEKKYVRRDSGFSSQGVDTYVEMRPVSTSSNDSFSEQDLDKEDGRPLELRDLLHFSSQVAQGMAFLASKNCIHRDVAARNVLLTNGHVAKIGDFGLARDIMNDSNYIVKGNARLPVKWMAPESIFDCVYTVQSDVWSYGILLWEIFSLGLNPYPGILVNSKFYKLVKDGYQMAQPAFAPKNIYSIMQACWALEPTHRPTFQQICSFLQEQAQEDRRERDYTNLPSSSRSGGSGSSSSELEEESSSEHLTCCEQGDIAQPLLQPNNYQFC

[21] = biological target: PDGFRα (Homo sapiens, UniProt P16234); parameters: purchased Reaction Biology Corporation (Malvern, PA); method as in Lopez et al., 2013; conditions: at 1 µM, panel of 319 kinases; ref Lopez et al., 2013; cited from earlier work
PDGFRα, sequence (P16234 24-1089): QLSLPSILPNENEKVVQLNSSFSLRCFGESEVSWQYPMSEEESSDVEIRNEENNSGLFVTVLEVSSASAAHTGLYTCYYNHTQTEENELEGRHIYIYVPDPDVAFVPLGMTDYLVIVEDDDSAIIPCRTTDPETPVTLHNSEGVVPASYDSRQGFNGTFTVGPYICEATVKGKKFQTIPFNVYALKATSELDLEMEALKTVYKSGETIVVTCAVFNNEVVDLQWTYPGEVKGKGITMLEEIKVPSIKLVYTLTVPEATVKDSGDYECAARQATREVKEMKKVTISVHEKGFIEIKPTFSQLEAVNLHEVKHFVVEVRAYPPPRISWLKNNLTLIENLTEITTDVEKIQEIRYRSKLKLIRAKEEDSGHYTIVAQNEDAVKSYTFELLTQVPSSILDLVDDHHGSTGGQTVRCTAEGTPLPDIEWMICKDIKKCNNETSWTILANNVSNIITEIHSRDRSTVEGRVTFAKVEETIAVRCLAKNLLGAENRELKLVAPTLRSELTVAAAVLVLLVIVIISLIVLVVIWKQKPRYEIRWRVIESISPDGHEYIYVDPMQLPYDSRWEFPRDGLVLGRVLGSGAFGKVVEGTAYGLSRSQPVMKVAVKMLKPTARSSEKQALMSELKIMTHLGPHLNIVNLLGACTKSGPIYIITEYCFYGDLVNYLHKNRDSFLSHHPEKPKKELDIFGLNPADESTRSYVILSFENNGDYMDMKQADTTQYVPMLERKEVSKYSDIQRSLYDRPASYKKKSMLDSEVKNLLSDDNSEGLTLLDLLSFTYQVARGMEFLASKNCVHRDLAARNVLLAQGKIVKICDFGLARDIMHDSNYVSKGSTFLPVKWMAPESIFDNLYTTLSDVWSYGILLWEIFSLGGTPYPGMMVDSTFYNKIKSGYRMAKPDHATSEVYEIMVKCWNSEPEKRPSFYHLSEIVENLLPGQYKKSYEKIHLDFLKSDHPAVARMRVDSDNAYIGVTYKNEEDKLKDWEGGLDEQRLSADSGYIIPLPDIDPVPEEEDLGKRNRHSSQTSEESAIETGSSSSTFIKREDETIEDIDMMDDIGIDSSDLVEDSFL

[22] = biological target: PDGFRβ (Homo sapiens, UniProt P09619); parameters: purchased Reaction Biology Corporation (Malvern, PA); method as in Lopez et al., 2013; conditions: at 1 µM, panel of 319 kinases; ref Lopez et al., 2013; cited from earlier work
PDGFRβ, sequence (P09619 33-1106): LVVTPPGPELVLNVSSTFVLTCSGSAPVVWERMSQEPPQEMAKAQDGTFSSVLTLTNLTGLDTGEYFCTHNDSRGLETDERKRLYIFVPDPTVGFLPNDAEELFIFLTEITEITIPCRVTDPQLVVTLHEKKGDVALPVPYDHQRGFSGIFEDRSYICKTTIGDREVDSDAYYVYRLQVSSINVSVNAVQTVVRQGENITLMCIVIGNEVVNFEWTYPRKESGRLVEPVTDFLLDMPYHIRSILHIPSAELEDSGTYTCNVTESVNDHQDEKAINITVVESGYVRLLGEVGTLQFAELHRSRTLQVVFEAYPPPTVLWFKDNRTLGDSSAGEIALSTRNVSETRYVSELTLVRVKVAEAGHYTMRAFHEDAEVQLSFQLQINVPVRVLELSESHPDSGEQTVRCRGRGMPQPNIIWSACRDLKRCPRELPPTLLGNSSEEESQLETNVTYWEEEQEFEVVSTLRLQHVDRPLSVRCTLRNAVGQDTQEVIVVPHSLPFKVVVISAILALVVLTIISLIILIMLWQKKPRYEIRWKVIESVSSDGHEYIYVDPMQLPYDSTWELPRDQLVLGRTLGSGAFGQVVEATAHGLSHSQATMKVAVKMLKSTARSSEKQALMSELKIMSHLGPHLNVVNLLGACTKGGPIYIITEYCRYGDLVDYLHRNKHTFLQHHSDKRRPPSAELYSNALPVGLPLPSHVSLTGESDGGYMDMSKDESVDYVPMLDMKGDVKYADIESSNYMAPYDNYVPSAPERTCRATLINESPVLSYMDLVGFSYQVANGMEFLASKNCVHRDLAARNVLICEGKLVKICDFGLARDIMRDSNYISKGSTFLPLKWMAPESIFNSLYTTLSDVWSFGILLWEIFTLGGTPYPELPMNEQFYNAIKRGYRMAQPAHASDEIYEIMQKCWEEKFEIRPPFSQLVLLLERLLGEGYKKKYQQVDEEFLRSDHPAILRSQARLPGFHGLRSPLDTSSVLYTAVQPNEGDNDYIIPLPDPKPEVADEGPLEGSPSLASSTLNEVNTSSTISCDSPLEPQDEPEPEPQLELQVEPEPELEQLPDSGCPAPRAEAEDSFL

For `CC(C)(C)c1cc(NC(=O)Nc2ccc(-c3cn4c(n3)sc3cc(OCCN5CCOCC5)ccc34)cc2)no1.Cl.Cl` [AC220, N-(5-tert-Butyl-isoxazol-3-yl)-N'-{4-[7-(2-morpholin-4-yl-ethoxy)imidazo[2,1-b][1,3]benzothiazol-2-yl]phenyl}urea Dihydrochloride], the CR rate [1] is listed as 50% and the CRi rate [1] is listed as 45%.

In the case of `COc1cc2c(N3CCN(C(=O)Nc4ccc(OC(C)C)cc4)CC3)ncnc2cc1OCCCN1CCCCC1` [MLN518], the IC50 [2] is given as 170 nM.

With `CO[C@@H]1[C@H](N(C)C(=O)c2ccccc2)C[C@H]2O[C@]1(C)n1c3ccccc3c3c4c(c5c6ccccc6n2c5c31)C(=O)NC4` [PKC412, N-benzoylstaurosporine, reference compound] the IC50 [3] was 16 ± 5 nM, the IC50 [4] was 354 ± 60 nM and the “apoptosis/toxicity (caspase-3) in KIT-addicted HMC1.1 cells” value [5] was “potent toxicity”. For the same compound, the “p-KIT and downstream signaling inhibition in HMC1.1 cells” value [6] was “inhibited p-KIT and downstream signaling to a greater degree”, the “raw colony numbers, FLT3-ITD+ blasts” value [7] was “ca. 20” and the “raw colony numbers, FLT3 D835Y blasts” value [8] was “ca. 25”. The “raw colony numbers, normal BM” value ([9]; at 1,000 nM) was “zero in most PKC412-treated replicates”, the “effect on normal hematopoietic colony formation (CFU and BFU)” value ([9]; normal BM and SPB donors, up to 1,000 nM) was “eliminates most normal hematopoietic colony forming potential at 1 mM; also recorded: dose-dependent inhibition of colony formation” and the “effect on zebrafish embryonic development / morphology” value [10] was “substantial morphological defects to the heart at 1 μM”. The “effect on mpo+ myeloid cells development in the PBI” value [11] was “statistically significant granulogenesis/myelosuppression; also recorded: statistically significant suppression of myelopoiesis”, the “effect on FLT3/ITD-induced mpo+ myeloid cells expansion” value [12] was “efficaciousness similar to Star 27” and the IC50 [13] was 243 ± 73 nM. For the same compound, the IC50 [14] was 9 ± 3 nM, the IC50 [15] was 9 ± 6 nM and the CR rate ([16]; combined with cytotoxic agents) was 25%. For the same compound, the “incomplete recovery of peripheral blood counts (CRi) rate” value ([16]; combined with cytotoxic agents) was 20%, the “patients developing grade 3/4 myelosuppression” value ([16]; combined with cytotoxic agents) was “over 90%” and the “complete remission (CR), single agent” value ([16]; single agent Phase II trial) was “failed to achieve a single complete remission”.

For `CC(C)C[C@@H]1NC(=O)c2c1c1c3ccccc3n(CCCCN)c1c1[nH]c3ccccc3c21` [Star 12], the IC50 [17] is given as 524 ± 94 nM, the “inhibition of FLT3” value [18] is given as 57% and the “inhibition of KIT” value [19] is given as less than 10%. The “inhibition of CSF1R” value [20] was less than 10%, the “inhibition of PDGFRα” value [21] was less than 10% and the “inhibition of PDGFRβ” value [22] was less than 10%.
